Test results as given in PubChem BioAssay (NCI).
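Results reflect a 48-hour exposure of cells in 96-well plates to compound at five concentrations. TGI denotes the concentration required for complete inhibition of growth.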

Assays:
Experiment in all cases: growth of human tumour cells (NCI), 48 h
786-0 renal = test system: 786-0 renal
A498 renal = test system: A498 renal
A549 NSCLC = test system: A549 NSCLC
ACHN renal = test system: ACHN renal
BT-549 breast = test system: BT-549 breast
CAKI-1 renal = test system: CAKI-1 renal
CCRF-CEM leukemia = test system: CCRF-CEM leukemia
COLO 205 colon = test system: COLO 205 colon
EKVX NSCLC = test system: EKVX NSCLC
HCC-2998 colon = test system: HCC-2998 colon
HCT-116 colon = test system: HCT-116 colon
HCT-15 colon = test system: HCT-15 colon
HL-60(TB) leukemia = test system: HL-60(TB) leukemia
HOP-62 NSCLC = test system: HOP-62 NSCLC
HOP-92 NSCLC = test system: HOP-92 NSCLC
HT29 colon = test system: HT29 colon
IGROV1 ovarian = test system: IGROV1 ovarian
K-562 leukemia = test system: K-562 leukemia
KM12 colon = test system: KM12 colon
LOX IMVI melanoma = test system: LOX IMVI melanoma
M14 melanoma = test system: M14 melanoma
MALME-3M melanoma = test system: MALME-3M melanoma
MCF7 breast = test system: MCF7 breast
MDA-MB-231 breast = test system: MDA-MB-231 breast
MDA-MB-435 = test system: MDA-MB-435
MDA-N = test system: MDA-N
MOLT-4 leukemia = test system: MOLT-4 leukemia
NCI-H226 lung = test system: NCI-H226 lung
NCI-H23 lung = test system: NCI-H23 lung
NCI-H522 lung = test system: NCI-H522 lung
NCI/ADR-RES ovarian = test system: NCI/ADR-RES ovarian
OVCAR-3 ovarian = test system: OVCAR-3 ovarian
OVCAR-4 ovarian = test system: OVCAR-4 ovarian
OVCAR-5 ovarian = test system: OVCAR-5 ovarian
OVCAR-8 ovarian = test system: OVCAR-8 ovarian
PC-3 prostate = test system: PC-3 prostate
RPMI-8226 leukemia = test system: RPMI-8226 leukemia
SF-295 CNS = test system: SF-295 CNS
SF-539 CNS = test system: SF-539 CNS
SK-MEL-2 melanoma = test system: SK-MEL-2 melanoma
SK-MEL-28 melanoma = test system: SK-MEL-28 melanoma
SK-MEL-5 melanoma = test system: SK-MEL-5 melanoma
SK-OV-3 ovarian = test system: SK-OV-3 ovarian
SN12C renal = test system: SN12C renal
SNB-19 CNS = test system: SNB-19 CNS
SNB-75 CNS = test system: SNB-75 CNS
SR leukemia = test system: SR leukemia
SW-620 colon = test system: SW-620 colon
T-47D breast = test system: T-47D breast
TK-10 renal = test system: TK-10 renal
U251 CNS = test system: U251 CNS
UACC-257 melanoma = test system: UACC-257 melanoma
UACC-62 melanoma = test system: UACC-62 melanoma
UO-31 renal = test system: UO-31 renal

Cc1[nH]c2ncn(N)c(=N)c2c1Cc1ccccc1 showed a TGI (786-0 renal) of over 100 µM, a TGI (A498 renal) of over 100 µM and a TGI (A549 NSCLC) of over 100 µM. For the same compound, the TGI (ACHN renal) was over 100 µM, the TGI (BT-549 breast) was over 100 µM and the TGI (CAKI-1 renal) was over 100 µM. For the same compound, the TGI (CCRF-CEM leukemia) was over 100 µM, the TGI (COLO 205 colon) was over 100 µM and the TGI (EKVX NSCLC) was over 100 µM. For the same compound, the TGI (HCC-2998 colon) was over 100 µM, the TGI (HCT-116 colon) was over 100 µM and the TGI (HCT-15 colon) was over 100 µM. The TGI (HL-60(TB) leukemia) was over 100 µM, the TGI (HOP-62 NSCLC) was over 100 µM and the TGI (HOP-92 NSCLC) was 87.8 µM. The TGI (HT29 colon) was over 100 µM, the TGI (IGROV1 ovarian) was over 100 µM and the TGI (K-562 leukemia) was over 100 µM. It also gave a TGI (KM12 colon) of over 100 µM, a TGI (LOX IMVI melanoma) of over 100 µM and a TGI (M14 melanoma) of over 100 µM. For the same compound, the TGI (MALME-3M melanoma) was over 100 µM, the TGI (MCF7 breast) was over 100 µM and the TGI (MDA-MB-231 breast) was over 100 µM. The TGI (MDA-MB-435) was over 100 µM, the TGI (MDA-N) was over 100 µM and the TGI (MOLT-4 leukemia) was over 100 µM. For the same compound, the TGI (NCI-H226 lung) was over 100 µM, the TGI (NCI-H23 lung) was over 100 µM and the TGI (NCI-H522 lung) was over 100 µM. For the same compound, the TGI (NCI/ADR-RES ovarian) was over 100 µM, the TGI (OVCAR-3 ovarian) was over 100 µM and the TGI (OVCAR-4 ovarian) was over 100 µM. For the same compound, the TGI (OVCAR-5 ovarian) was over 100 µM, the TGI (OVCAR-8 ovarian) was over 100 µM and the TGI (PC-3 prostate) was over 100 µM. It also gave a TGI (RPMI-8226 leukemia) of over 100 µM, a TGI (SF-295 CNS) of over 100 µM and a TGI (SF-539 CNS) of over 100 µM. It also gave a TGI (SK-MEL-2 melanoma) of over 100 µM, a TGI (SK-MEL-28 melanoma) of over 100 µM and a TGI (SK-MEL-5 melanoma) of over 100 µM. The TGI (SK-OV-3 ovarian) was over 100 µM, the TGI (SN12C renal) was over 100 µM and the TGI (SNB-19 CNS) was over 100 µM. The TGI (SNB-75 CNS) was over 100 µM, the TGI (SR leukemia) was over 100 µM and the TGI (SW-620 colon) was over 100 µM. It also gave a TGI (T-47D breast) of over 100 µM, a TGI (TK-10 renal) of over 100 µM and a TGI (U251 CNS) of over 100 µM. For the same compound, the TGI (UACC-257 melanoma) was over 100 µM, the TGI (UACC-62 melanoma) was over 100 µM and the TGI (UO-31 renal) was over 100 µM.
